Test results reported in US20250018048A1, “FLUCONAZOLE-COX INHIBITOR HYBRIDS: A DUAL-ACTING CLASS OF ANTIFUNGAL AZOLES” (Ramot at Tel-Aviv University Ltd., priority 2022, published 2025).
Values after ≈ are worked out from the molar mass of the structure shown.

Assays:
Format in all cases: cell-based
[1] = system: C. albicans ATCC 24433; assay: MIC80 broth double-dilution assay; details: YPAD medium, 30° C., 24 h
Procedure: (§1) The antifungal activities of the 24 azole-COX inhibitor hybrids were evaluated against a panel of 16 representative strains of different species of the genus Candida. Candida species cause both superficial and systemic infections. The panel included strains of C. albicans, C. glabrata, C. parapsilosis, C. tropicalis, C. guilliermondii, C. dubliniensis, and C. auris (Table S2). To evaluate antifungal activity, the minimal inhibitory concentration 80% (MIC80) values were determined, which were defined as the lowest drug concentrations with turbidity (measured at OD600) less than or equal to that of specific 1:5 dilutions of the growth control. As controls, FLC and VOR, were tested.
(§2) MIC80 values were determined using the broth microdilution method over a concentration range of 0.003-64 μg/mL. Orange circles represent C. albicans strains, yellow circles represent C. glabrata strains, and green circles represent C. parapsilosis, C. tropicalis, C. dubliniensis and C. auris. Cells were grown in YPAD medium at 30° C. (For C. auris strains 37° C.) 24 h. Each concentration was tested in triplicate, and results were confirmed in at least two independent experiments.
(§3) C. albicans, C. glabrata, C. parapsilosis, C. guilliermondii, C. tropicalis, and C. dubliniensis MICs were determined using CLSI M27-A3 guidelines with minor modifications. Starter cultures were streaked from glycerol stock onto YPAD agar plates and grown for 24 h at 30° C. Colonies were suspended in 1 mL PBS and diluted to 1×10^−3 OD600 and then diluted 1:100 into fresh medium. Hybrids dissolved in DMSO were added to YPAD broth (32 μL stock solution in 1218 μL of YPAD broth), and serial double dilutions of hybrids in YPAD were prepared in flat-bottomed 96-well microplates (Corning) to enable testing of concentrations ranging from 64 μg/mL to 0.003 μg/mL. Control wells with yeast cells but no drug and blank wells containing only YPAD were prepared. An equal volume (100 μL) of yeast suspensions in YPAD broth was added to each well with the exceptions of the blank wells. MIC values (Tables S4-S6) were determined after 24 h at 30° C. by measuring the OD600 using a plate reader (Infinite M200 PRO, Tecan). MIC values were defined as the point at which the OD600 was reduced by >80% compared to the no-drug wells. Each concentration was tested in triplicate, and results were confirmed by two independent sets of experiments. FLC and VOR were used as control drugs.

[2] = system: C. parapsilosis ATCC 22019; assay: MIC80 broth double-dilution assay; details: YPAD medium, 30° C., 24 h
Procedure: as §1, §2, §3

[3] = system: C. albicans SC5314; assay: MIC80 broth double-dilution assay; details: YPAD medium, 30° C., 24 h
Procedure: as §1, §2, §3

[4] = system: C. dubliniensis T-99; assay: MIC80 broth double-dilution assay; details: YPAD medium, 30° C., 24 h
Procedure: as §1, §2, §3

[5] = system: C. albicans ATCC 90028; assay: MIC80 broth double-dilution assay; details: YPAD medium, 30° C., 24 h
Procedure: as §1, §2, §3

[6] = system: C. albicans P-87; assay: MIC80 broth double-dilution assay; details: YPAD medium, 30° C., 24 h
Procedure: as §1, §2, §3

[7] = system: C. tropicalis 660; assay: MIC80 broth double-dilution assay; details: YPAD medium, 30° C., 24 h
Procedure: as §1, §2, §3

[8] = system: C. albicans SN152; assay: MIC80 broth double-dilution assay; details: YPAD medium, 30° C., 24 h; parent strain of the erg11ΔΔ/erg3ΔΔ mutant
Procedure: as §1, §2
(§4) The clinically used FLC and VOR act primarily by preventing ergosterol biosynthesis via inhibition of CYP51. Analysis was done to determine whether fungal growth inhibition by the hybrids required the presence of the ERG11 gene that encodes for CYP51. The antifungal activities of hybrids 1 and 5 and of FLC and VOR were determined against an erg11ΔΔ/erg3ΔΔ mutant C. albicans strain and against C. albicans SN152 from which this double knockout strain was derived (Table S2). […] Yeast growth was followed at OD600 over 48 h in 96-well plates containing serial double dilutions of the tested hybrids.
as §3

[9] = system: C. albicans 742 (erg11ΔΔ/erg3ΔΔ mutant C. albicans strain); assay: MIC80 broth double-dilution assay, strain lacking CYP51; details: YPAD medium, 30° C., 24 h; erg11ΔΔ/erg3ΔΔ mutant lacking CYP51
Procedure: as §1, §4, §3

[10] = system: C. guilliermondii T-47; assay: MIC80 broth double-dilution assay; details: YPAD medium, 30° C., 24 h
Procedure: as §1, §3

`C[C@H](C(=O)NC[C@](O)(Cn1cncn1)c1ccc(F)cc1F)c1cccc(C(=O)c2ccccc2)c1` [Hybrid 13] was tested, and the “MIC80 against C. albicans 24433” value [1] was 4 µg/mL (≈ 8.15 µM), the “MIC80 against C. parapsilosis 22019” value [2] was 8 µg/mL (≈ 16.3 µM) and the “MIC80 against C. albicans SC5314” value [3] was 2 µg/mL (≈ 4.08 µM). For the same compound, the “MIC80 against C. dubliniensis T-99” value [4] was 64 µg/mL (≈ 130 µM), the “MIC80 against C. albicans 90028” value [5] was 2 µg/mL (≈ 4.08 µM) and the “MIC80 against C. albicans P-87” value [6] was 4 µg/mL (≈ 8.15 µM). For the same compound, the “MIC80 against C. tropicalis 660” value [7] was 16 µg/mL (≈ 32.6 µM), the “MIC80 against C. albicans SN152” value [8] was 2 µg/mL (≈ 4.08 µM) and the “MIC80 against C. albicans 742” value [9] was greater than 64 µg/mL. For the same compound, the “MIC80 against C. guilliermondii T-47” value [10] was 32 µg/mL (≈ 65.2 µM).
`O=C(NC[C@@](O)(Cn1cncn1)c1ccc(F)cc1F)c1ccccc1O` [Hybrid 22] was tested, and the “MIC80 against C. albicans 24433” value [1] was 16 µg/mL (≈ 42.7 µM), the “MIC80 against C. parapsilosis 22019” value [2] was 8 µg/mL (≈ 21.4 µM) and the “MIC80 against C. albicans SC5314” value [3] was 8 µg/mL (≈ 21.4 µM). The “MIC80 against C. dubliniensis T-99” value [4] was greater than 64 µg/mL, the “MIC80 against C. albicans 90028” value [5] was 8 µg/mL (≈ 21.4 µM) and the “MIC80 against C. albicans P-87” value [6] was 16 µg/mL (≈ 42.7 µM). The “MIC80 against C. tropicalis 660” value [7] was 32 µg/mL (≈ 85.5 µM), the “MIC80 against C. albicans SN152” value [8] was 8 µg/mL (≈ 21.4 µM) and the “MIC80 against C. albicans 742” value [9] was greater than 64 µg/mL. For the same compound, the “MIC80 against C. guilliermondii T-47” value [10] was 16 µg/mL (≈ 42.7 µM).
For `C[C@@H](C(=O)NC[C@](O)(Cn1cncn1)c1ccc(F)cc1F)c1ccc(-c2ccccc2)c(F)c1` [Hybrid 6], the “MIC80 against C. albicans 24433” value [1] was 0.12 µg/mL (≈ 0.25 µM), the “MIC80 against C. parapsilosis 22019” value [2] was 2 µg/mL (≈ 4.16 µM) and the “MIC80 against C. albicans SC5314” value [3] was 0.03 µg/mL (≈ 0.0624 µM). For the same compound, the “MIC80 against C. dubliniensis T-99” value [4] was 2 µg/mL (≈ 4.16 µM), the “MIC80 against C. albicans 90028” value [5] was 0.12 µg/mL (≈ 0.25 µM) and the “MIC80 against C. albicans P-87” value [6] was 0.03 µg/mL (≈ 0.0624 µM). The “MIC80 against C. tropicalis 660” value [7] was 8 µg/mL (≈ 16.6 µM), the “MIC80 against C. albicans SN152” value [8] was 0.06 µg/mL (≈ 0.125 µM) and the “MIC80 against C. albicans 742” value [9] was greater than 64 µg/mL. For the same compound, the “MIC80 against C. guilliermondii T-47” value [10] was 2 µg/mL (≈ 4.16 µM).
With `COc1ccc2cc([C@H](C)C(=O)NC[C@@](O)(Cn3cncn3)c3ccc(F)cc3F)ccc2c1` [Hybrid 12] the “MIC80 against C. albicans 24433” value [1] was 4 µg/mL (≈ 8.57 µM), the “MIC80 against C. parapsilosis 22019” value [2] was 4 µg/mL (≈ 8.57 µM) and the “MIC80 against C. albicans SC5314” value [3] was 2 µg/mL (≈ 4.29 µM). The “MIC80 against C. dubliniensis T-99” value [4] was 32 µg/mL (≈ 68.6 µM), the “MIC80 against C. albicans 90028” value [5] was 4 µg/mL (≈ 8.57 µM) and the “MIC80 against C. albicans P-87” value [6] was 4 µg/mL (≈ 8.57 µM). The “MIC80 against C. tropicalis 660” value [7] was greater than 64 µg/mL, the “MIC80 against C. albicans SN152” value [8] was 2 µg/mL (≈ 4.29 µM) and the “MIC80 against C. albicans 742” value [9] was greater than 64 µg/mL. For the same compound, the “MIC80 against C. guilliermondii T-47” value [10] was 32 µg/mL (≈ 68.6 µM).
In the case of `O=C(NC[C@@](O)(Cn1cncn1)c1ccc(F)cc1F)c1cc(-c2ccc(F)cc2F)ccc1O` [Hybrid 20], the “MIC80 against C. albicans 24433” value [1] is reported as 16 µg/mL (≈ 32.9 µM), the “MIC80 against C. parapsilosis 22019” value [2] is reported as 8 µg/mL (≈ 16.4 µM) and the “MIC80 against C. albicans SC5314” value [3] is reported as 8 µg/mL (≈ 16.4 µM). For the same compound, the “MIC80 against C. dubliniensis T-99” value [4] was 0.5 µg/mL (≈ 1.03 µM), the “MIC80 against C. albicans 90028” value [5] was 16 µg/mL (≈ 32.9 µM) and the “MIC80 against C. albicans P-87” value [6] was 8 µg/mL (≈ 16.4 µM). For the same compound, the “MIC80 against C. tropicalis 660” value [7] was greater than 64 µg/mL, the “MIC80 against C. albicans SN152” value [8] was 8 µg/mL (≈ 16.4 µM) and the “MIC80 against C. albicans 742” value [9] was 32 µg/mL (≈ 65.8 µM). For the same compound, the “MIC80 against C. guilliermondii T-47” value [10] was greater than 64 µg/mL.
